In US12187653B2, “Surface retarder formulation and method for replicating an acid etch or sand blast aspect on cementitious material” (GCP Applied Technologies Inc., priority 2018, dated 2025):

Experiments:
[1] = Etch quality of in-form surface retarder on cast concrete after pressure washing; settings: for surface etch: Example 6, procedure of Example 2
Procedure: Each was used to make an in-form surface retarder by combining the materials shown below, in the order listed, in a Silverson-high shear rotor-stator mixer at 5000 rpm, and mixing for 10 minutes after the final addition.
The exemplary in-form surface retarder was roller applied in rectangles on a wood form at a rate of 400 ft^2/gallon and allowed to dry for 2 hours at 72° F.
The concrete was poured into the wood form which has the surface retarder paint applied. The concrete was allowed to dry and cure without covering for 22 hours at a temperature of 90° F.
After 22 hours of curing, the concrete was removed from the wood mold and sprayed with high pressure water from a 1900 psi pressure washer to remove the in-form surface retarder and retarded cement paste. Washing continued until water was running clear and no further cement paste is removed (this process removes whatever cement paste that has not hardened to the surface of the concrete due to the retarding effects of the acids tested).

[2] = Solubility of acids in water, saturated solution measured by Total Organic Carbon; settings: in 100 mL water, 25° C., stirred 14 hours, TOC
Procedure: The mixture was allowed to settle and the saturated aqueous solution of acid was decanted. Concentration was measured by Total Organic Carbon using a TOC-L CSH/CSN by Shimadzu. A calibration curve is generate based off a four point calibration of 0 ppm, 25 ppm, 50 ppm, and 100 ppm carbon. Samples are then diluted to a predetermined dilution factor. 20 mL of the diluted samples are acidified to a pH of ^˜2-3 with hydrochloric acid. Samples are run based off the calibration curve performing two 50 uL injections each to determine the total organic carbon of the sample.

[3] = Cement binding: percent of species absorbed to cement, by ion chromatography; settings: for % adsorbed: 1% acid in 2% KOH solution, 30 g solution on 3 g cement, 10 min; for % binding to cement: Example 6, procedure of Example 1B
Procedure: Each acid was dissolved at 1% by weight in a 2% by weight KOH solution. Thirty grams of solution was exposed to 3 g of Type I/II cement in a tube, and mixed on a tube rotator for 10 min @ 30 rpm. The resulting slurry was centrifuged for 1 min at 4000 rpm to separate the cement and adsorbed compounds from the soluble species. The soluble portion was filtered with a 0.2 micron syringe filter and then analyzed by ion chromatography using an ICS-2100 RFIC by Dionex with single point calibration with a standard at 100 ppm. Samples and standards were prepared in 50 mM KOH solution. Samples' dilutions were adjusted to be within calibration range. Data analysis run through peak area integration.
The cement binding is expressed as a percent of the species present that absorbed to the cement.

[4] = Table 5: resin in the given solvent
Procedure: The solubility of resin in various organic solvents was evaluated by observation. A small amount of resin (0.2 g) was placed in a vial with 3 mL of the solvent. Observations were made immediately, after two hours and thirty minutes, and after 15 hours.

[5] = Example 2: retarder with 8 g acid, 400 ft^2/gallon on wood form, concrete cured 22 hours at 90° F., compared to FIG. 1
[6] = Example 3, same procedure as Example 2, tartaric acid forms compared

## O=C(O)CCCC(=O)O [Glutaric Acid]
[1]; [5]
  Etch depth: just right, light etch showing sand textures
[2]
  Solubility: 36 g/100 g
[3]
  % adsorbed: 0%

## CC(C(=O)O)C(=O)O [Methymalonic Acid, Methylmalonic acid]
[1]; [5]
  Etch depth: Very light to none
[2]
  Solubility: 5 g/100 g
[3]
  % adsorbed: 7.0%

## O=C[C@H](O)[C@@H](O)[C@H](O)[C@H](O)CO [D-(+)-Glucose]
[3]
  % binding to cement: 100%

## C/C(=C\C(=O)O)C(=O)O [Mesaconic Acid]
[1]; [5]
  Etch depth: Very light to none
[3]
  % adsorbed: 0%

## O=C(O)CN(CCN(CC(=O)O)CC(=O)O)CC(=O)O [Ethylenediamine-tetraacetic]
[1]
  surface etch: very light to none
[3]
  % binding to cement: 36%

## O=C(O)C(O)C(O)C(=O)O (racemic) [DL-Tartaric Acid]
[1]; [5]
  Etch depth: just right, light etch showing sand textures
[1]; [6]
  Etch depth: just right, light etch showing sand textures
[3]
  % adsorbed: 31.6%

## O=C(O)CC(=O)O [Malonic Acid]
[1]; [5]
  Etch depth: too deep, coarse aggregates visible
[3]
  % adsorbed: 6.3%

## O=C(O)C(=O)O [Oxalic Acid]
[1]; [5]
  Etch depth: just right, light etch showing sand textures
[3]
  % adsorbed: 94.8%

## O=C(O)C(O)C(O)C(=O)O (centres unmarked) [L Tartaric Acid]
[1]; [5]
  Etch depth: too deep, coarse aggregates visible
[1]; [6]
  Etch depth: too deep, coarse aggregates visible
[3]
  % adsorbed: 21.5%

## O=C(O)CCC(=O)O [Succinic Acid]
[1]; [5]
  Etch depth: Lighter than optimum, not even
[3]
  % adsorbed: 6.4%

## NCCCCCCCCCCCC(=O)O [12-Aminododecanoic Acid]
[1]
  surface etch: very light to none
[3]
  % binding to cement: 90%

## Xylene
[4]
  Resin solubility: Dissolved

## OB(O)O [Boric Acid by ICP, Boric Acid]
[3]
  % binding to cement: 100%

## C/C(=C/C(=O)O)C(=O)O [Citraconic Acid]
[1]; [5]
  Etch depth: Lighter than optimum, not even
[3]
  % adsorbed: 1.9%

## O=C(O)c1ccccc1C(=O)O [Phthalic Acid]
[1]; [5]
  Etch depth: Very light to none
[3]
  % adsorbed: 0%

## O=C(O)C(O)C(O)C(=O)O (centres unmarked) [D Tartaric Acid]
[1]; [5]
  Etch depth: too deep, coarse aggregates visible
[1]; [6]
  Etch depth: too deep, coarse aggregates visible
[3]
  % adsorbed: 29.1%

## O=C(O)CCCCC(=O)O [Adipic Acid]
[1]; [5]
  Etch depth: Lighter than optimum, not even
[3]
  % adsorbed: 1.1%

## CCCCOC(C)=O [Butyl Acetate]
[4]
  Resin solubility: Dissolved

## O=C(O)/C=C(\CC(=O)O)C(=O)O [trans-Aconitic Acid]
[3]
  % binding to cement: 5%
